Measurements as given in ChEMBL document CHEMBL4725326, “Synthesis, α-glucosidase inhibition, and molecular docking studies of novel N-substituted hydrazide derivatives of atranorin as antidiabetic agents” (Bioorg Med Chem Lett, 2020).

Columns and labels:
[1] = tested on: HEK293; assay: Cytotoxicity against HEK293 cells assessed as reduction in cell viability; assay type: cell-based; settings: Homo sapiens
[2] = Inhibition of alpha-glucosidase (unknown origin); design: species or system Homo sapiens

With `COC(=O)c1c(C)cc(OC(=O)c2c(C)cc(O)c(/C=N/NC(=O)COc3ccc(C)cc3)c2O)c(C)c1O` the IC50 [1] was over 100 µM and the IC50 [2] was 54.7 µM.
`COC(=O)c1c(C)cc(OC(=O)c2c(C)cc(O)c(/C=N/NC(=O)CSc3nc4ccccc4s3)c2O)c(C)c1O` gave an IC50 [1] of 70.1 µM and an IC50 [2] of 9.12 µM.
With `COC(=O)c1c(C)cc(OC(=O)c2c(C)cc(O)c(/C=N/NC(=O)COc3ccccc3C)c2O)c(C)c1O` the IC50 [1] was over 100 µM and the IC50 [2] was 53.3 µM.
Compound `COC(=O)c1c(C)cc(OC(=O)c2c(C)cc(O)c(/C=N/NC(=O)COc3cccc(C)c3)c2O)c(C)c1O` has an IC50 [1] of over 100 µM and an IC50 [2] of 40.6 µM.
With `COC(=O)c1c(C)cc(OC(=O)c2c(C)cc(O)c(/C=N/NC(=O)c3cc(Cl)ccc3O)c2O)c(C)c1O` the IC50 [1] was 63.2 µM and the IC50 [2] was 9.91 µM.
In the case of `COC(=O)c1c(C)cc(OC(=O)c2c(C)cc(O)c(/C=N/NC(=O)COc3ccc(Br)cc3)c2O)c(C)c1O`, the IC50 [1] is reported as over 100 µM and the IC50 [2] is reported as 17.3 µM.
In the case of `COC(=O)c1c(C)cc(OC(=O)c2c(C)cc(O)c(/C=N/NC(=O)COc3cc4ccccc4o3)c2O)c(C)c1O`, the IC50 [1] is reported as 84.4 µM and the IC50 [2] is reported as 39.7 µM.
In the case of `COC(=O)c1c(C)cc(OC(=O)c2c(C)cc(O)c(/C=N/NC(=O)CNc3ccc(C)cc3)c2O)c(C)c1O`, the IC50 [1] is reported as over 100 µM and the IC50 [2] is reported as 31.5 µM.
`COC(=O)c1c(C)cc(OC(=O)c2c(C)cc(O)c(/C=N/NC(=O)COc3ccc4ccccc4c3)c2O)c(C)c1O` gave an IC50 [1] of 52.7 µM and an IC50 [2] of 18.9 µM.
In the case of `COC(=O)c1c(C)cc(OC(=O)c2c(C)cc(O)c(/C=N/NC(=O)c3cc(I)ccc3O)c2O)c(C)c1O`, the IC50 [1] is reported as 94.1 µM and the IC50 [2] is reported as 41.2 µM.
`COC(=O)c1c(C)cc(OC(=O)c2c(C)cc(O)c(/C=N/NC(=O)Cc3ccccc3)c2O)c(C)c1O` gave an IC50 [1] of over 100 µM and an IC50 [2] of 6.67 µM.
Compound `COC(=O)c1c(C)cc(OC(=O)c2c(C)cc(O)c(/C=N/NC(=O)COc3cc(C)ccc3C(C)C)c2O)c(C)c1O` has an IC50 [1] of over 100 µM and an IC50 [2] of 28.1 µM.
`C[C@H]1O[C@H](O[C@H]2[C@H](O)[C@@H](O)[C@@H](O[C@H]3[C@H](O)[C@@H](O)C(O)O[C@@H]3CO)O[C@@H]2CO)[C@H](O)[C@@H](O)[C@@H]1N[C@H]1C=C(CO)[C@@H](O)[C@H](O)[C@H]1O` (some centres not stated) [ACARBOSE] showed an IC50 [2] of 93.6 µM.
With `COC(=O)c1c(C)cc(OC(=O)c2c(C)cc(O)c(C=O)c2O)c(C)c1O` [ATRANORIN] the IC50 [2] was over 100 µM.
For `COc1cccc2c1C(=O)c1c(O)c3c(c(O)c1C2=O)C[C@@](O)(C(=O)CO)C[C@@H]3O[C@H]1C[C@H](N)[C@H](O)[C@H](C)O1` [DOXORUBICIN], the IC50 [1] was 7.92 µM.
